Assay: (§1) The drug is tested on Z-021 corresponding to metagenome with ENA study accession number: PRJEB37062 and ENA sample accession number: ERS12561820 for biotransformation under anaerobic condition. The drug concentrations were measured over 9 timepoints collected between 0 and 24 hours of incubation by liquid-chromatography-coupled mass spectrometry (LC–MS)
Details: 2 µM
Note: call rule not given here.

Bacterial Biotransformation | Compound
Compound NOT metabolized | COc1ccc2c(c1)c(CC(=O)O)c(C)n2C(=O)c1ccc(Cl)cc1 [INDOMETHACIN]
Compound NOT metabolized | CC(CCc1ccccc1)NCC(O)c1ccc(O)c(C(N)=O)c1 (stereo not given) [LABETALOL]

Assay: (§2) The drug is tested on WLS-027 corresponding to human gut metagenome with ENA study accession number: PRJEB37062 and ENA sample accession number: ERS12561744 for biotransformation under anaerobic condition. The drug concentrations were measured over 9 timepoints collected between 0 and 24 hours of incubation by liquid-chromatography-coupled mass spectrometry (LC–MS)
Details: 2 µM

Bacterial Biotransformation | Compound
Compound metabolized | COc1ccc2c(c1)c(CC(=O)O)c(C)n2C(=O)c1ccc(Cl)cc1 [INDOMETHACIN]
Compound NOT metabolized | CC(CCc1ccccc1)NCC(O)c1ccc(O)c(C(N)=O)c1 (stereo not given) [LABETALOL]

Details: human gut metagenome, 24 h, 2 µM

Bacterial Biotransformation | Compound
Compound metabolized | COc1ccc2c(c1)c(CC(=O)O)c(C)n2C(=O)c1ccc(Cl)cc1 [INDOMETHACIN]
Compound NOT metabolized | CC(CCc1ccccc1)NCC(O)c1ccc(O)c(C(N)=O)c1 (stereo not given) [LABETALOL]

Assay: as §2, with “Z-018” for “WLS-027”, “pig” for “human”, “ERS12561817” for “ERS12561744”
Details: 2 µM

Bacterial Biotransformation | Compound
Compound metabolized | COc1ccc2c(c1)c(CC(=O)O)c(C)n2C(=O)c1ccc(Cl)cc1 [INDOMETHACIN]
Compound NOT metabolized | CC(CCc1ccccc1)NCC(O)c1ccc(O)c(C(N)=O)c1 (stereo not given) [LABETALOL]

Details: human gut metagenome, 24 h, 2 µM
Remark: another data set of the same source

Bacterial Biotransformation | Compound
Compound NOT metabolized | COc1ccc2c(c1)c(CC(=O)O)c(C)n2C(=O)c1ccc(Cl)cc1 [INDOMETHACIN]
Compound NOT metabolized | CC(CCc1ccccc1)NCC(O)c1ccc(O)c(C(N)=O)c1 (stereo not given) [LABETALOL]

Details: human gut metagenome, 24 h, 2 µM
Remark: another data set of the same source

Bacterial Biotransformation | Compound
Compound metabolized | COc1ccc2c(c1)c(CC(=O)O)c(C)n2C(=O)c1ccc(Cl)cc1 [INDOMETHACIN]
Compound NOT metabolized | CC(CCc1ccccc1)NCC(O)c1ccc(O)c(C(N)=O)c1 (stereo not given) [LABETALOL]

Assay: as §2, with “WLS-086” for “WLS-027”, “ERS12561752” for “ERS12561744”
Details: 2 µM

Bacterial Biotransformation | Compound
Compound metabolized | COc1ccc2c(c1)c(CC(=O)O)c(C)n2C(=O)c1ccc(Cl)cc1 [INDOMETHACIN]
Compound metabolized | CC(CCc1ccccc1)NCC(O)c1ccc(O)c(C(N)=O)c1 (stereo not given) [LABETALOL]

Assay: as §2, with “Z-014” for “WLS-027”, “rat” for “human”, “ERS12561814” for “ERS12561744”
Details: 2 µM

Bacterial Biotransformation | Compound
Compound NOT metabolized | COc1ccc2c(c1)c(CC(=O)O)c(C)n2C(=O)c1ccc(Cl)cc1 [INDOMETHACIN]
Compound NOT metabolized | CC(CCc1ccccc1)NCC(O)c1ccc(O)c(C(N)=O)c1 (stereo not given) [LABETALOL]

Details: human gut metagenome, 24 h, 2 µM
Remark: another data set of the same source

Bacterial Biotransformation | Compound
Compound metabolized | COc1ccc2c(c1)c(CC(=O)O)c(C)n2C(=O)c1ccc(Cl)cc1 [INDOMETHACIN]
Compound NOT metabolized | CC(CCc1ccccc1)NCC(O)c1ccc(O)c(C(N)=O)c1 (stereo not given) [LABETALOL]

Assay: as §2, with “WLS-082” for “WLS-027”, “ERS12561751” for “ERS12561744”
Details: 2 µM

Bacterial Biotransformation | Compound
Compound NOT metabolized | COc1ccc2c(c1)c(CC(=O)O)c(C)n2C(=O)c1ccc(Cl)cc1 [INDOMETHACIN]
Compound NOT metabolized | CC(CCc1ccccc1)NCC(O)c1ccc(O)c(C(N)=O)c1 (stereo not given) [LABETALOL]

Assay: as §2, with “Z-019” for “WLS-027”, “rat” for “human”, “ERS12561818” for “ERS12561744”
Details: 2 µM

Bacterial Biotransformation | Compound
Compound NOT metabolized | COc1ccc2c(c1)c(CC(=O)O)c(C)n2C(=O)c1ccc(Cl)cc1 [INDOMETHACIN]
Compound NOT metabolized | CC(CCc1ccccc1)NCC(O)c1ccc(O)c(C(N)=O)c1 (stereo not given) [LABETALOL]

Assay: as §2, with “Z-001” for “WLS-027”, “mouse” for “human”, “ERS12561801” for “ERS12561744”
Details: 2 µM

Bacterial Biotransformation | Compound
Compound NOT metabolized | COc1ccc2c(c1)c(CC(=O)O)c(C)n2C(=O)c1ccc(Cl)cc1 [INDOMETHACIN]
Compound NOT metabolized | CC(CCc1ccccc1)NCC(O)c1ccc(O)c(C(N)=O)c1 (stereo not given) [LABETALOL]

Assay: as §2, with “WLS-090” for “WLS-027”, “ERS12561753” for “ERS12561744”
Details: 2 µM

Bacterial Biotransformation | Compound
Compound metabolized | COc1ccc2c(c1)c(CC(=O)O)c(C)n2C(=O)c1ccc(Cl)cc1 [INDOMETHACIN]
Compound metabolized | CC(CCc1ccccc1)NCC(O)c1ccc(O)c(C(N)=O)c1 (stereo not given) [LABETALOL]

Details: human gut metagenome, 24 h, 2 µM
Remark: another data set of the same source

Bacterial Biotransformation | Compound
Compound metabolized | COc1ccc2c(c1)c(CC(=O)O)c(C)n2C(=O)c1ccc(Cl)cc1 [INDOMETHACIN]
Compound NOT metabolized | CC(CCc1ccccc1)NCC(O)c1ccc(O)c(C(N)=O)c1 (stereo not given) [LABETALOL]

Assay: as §2, with “Z-017” for “WLS-027”, “mouse” for “human”, “ERS12561816” for “ERS12561744”
Details: 2 µM

Bacterial Biotransformation | Compound
Compound NOT metabolized | COc1ccc2c(c1)c(CC(=O)O)c(C)n2C(=O)c1ccc(Cl)cc1 [INDOMETHACIN]
Compound NOT metabolized | CC(CCc1ccccc1)NCC(O)c1ccc(O)c(C(N)=O)c1 (stereo not given) [LABETALOL]

Details: human gut metagenome, 24 h, 2 µM
Remark: another data set of the same source

Bacterial Biotransformation | Compound
Compound metabolized | COc1ccc2c(c1)c(CC(=O)O)c(C)n2C(=O)c1ccc(Cl)cc1 [INDOMETHACIN]
Compound NOT metabolized | CC(CCc1ccccc1)NCC(O)c1ccc(O)c(C(N)=O)c1 (stereo not given) [LABETALOL]

Assay: as §2, with “WLS-039” for “WLS-027”, “ERS12561746” for “ERS12561744”
Details: 2 µM

Bacterial Biotransformation | Compound
Compound metabolized | COc1ccc2c(c1)c(CC(=O)O)c(C)n2C(=O)c1ccc(Cl)cc1 [INDOMETHACIN]
Compound NOT metabolized | CC(CCc1ccccc1)NCC(O)c1ccc(O)c(C(N)=O)c1 (stereo not given) [LABETALOL]

Assay: as §1, with “Z-010” for “Z-021”, “ERS12561810” for “ERS12561820”
Details: 2 µM

Bacterial Biotransformation | Compound
Compound NOT metabolized | COc1ccc2c(c1)c(CC(=O)O)c(C)n2C(=O)c1ccc(Cl)cc1 [INDOMETHACIN]
Compound NOT metabolized | CC(CCc1ccccc1)NCC(O)c1ccc(O)c(C(N)=O)c1 (stereo not given) [LABETALOL]

Assay: as §1, with “Z-005” for “Z-021”, “ERS12561805” for “ERS12561820”
Details: 2 µM

Bacterial Biotransformation | Compound
Compound NOT metabolized | COc1ccc2c(c1)c(CC(=O)O)c(C)n2C(=O)c1ccc(Cl)cc1 [INDOMETHACIN]
Compound NOT metabolized | CC(CCc1ccccc1)NCC(O)c1ccc(O)c(C(N)=O)c1 (stereo not given) [LABETALOL]

Assay: as §2, with “WLS-170” for “WLS-027”, “ERS12561762” for “ERS12561744”
Details: 2 µM

Bacterial Biotransformation | Compound
Compound metabolized | COc1ccc2c(c1)c(CC(=O)O)c(C)n2C(=O)c1ccc(Cl)cc1 [INDOMETHACIN]
Compound NOT metabolized | CC(CCc1ccccc1)NCC(O)c1ccc(O)c(C(N)=O)c1 (stereo not given) [LABETALOL]

Source: ChEMBL document CHEMBL5724914, “Linking interpersonal differences in gut microbiota composition and drug biotransformation activity” (2024)
